# According to ChEMBL document CHEMBL5465560, “Selectivity Literature for EUbOPEN Chemogenomic Library” (2024):
# Columns and labels:
# [1] = molecular target: Ribosomal protein S6 kinase alpha-3 (Homo sapiens, UniProt P51812); conditions: at 10 µM
# [2] = molecular target: Receptor tyrosine-protein kinase erbB-4 (Homo sapiens, UniProt Q15303); conditions: at 10 µM
# [3] = molecular target: T1, Non-receptor tyrosine-protein kinase TNK1 (Homo sapiens) (UniProt Q13470); assay: Selectivity interaction (KinomeScan (DiscoverX)) EUB0001079a TNK1; conditions: at 1 µM
# T1 sequence (whole entry): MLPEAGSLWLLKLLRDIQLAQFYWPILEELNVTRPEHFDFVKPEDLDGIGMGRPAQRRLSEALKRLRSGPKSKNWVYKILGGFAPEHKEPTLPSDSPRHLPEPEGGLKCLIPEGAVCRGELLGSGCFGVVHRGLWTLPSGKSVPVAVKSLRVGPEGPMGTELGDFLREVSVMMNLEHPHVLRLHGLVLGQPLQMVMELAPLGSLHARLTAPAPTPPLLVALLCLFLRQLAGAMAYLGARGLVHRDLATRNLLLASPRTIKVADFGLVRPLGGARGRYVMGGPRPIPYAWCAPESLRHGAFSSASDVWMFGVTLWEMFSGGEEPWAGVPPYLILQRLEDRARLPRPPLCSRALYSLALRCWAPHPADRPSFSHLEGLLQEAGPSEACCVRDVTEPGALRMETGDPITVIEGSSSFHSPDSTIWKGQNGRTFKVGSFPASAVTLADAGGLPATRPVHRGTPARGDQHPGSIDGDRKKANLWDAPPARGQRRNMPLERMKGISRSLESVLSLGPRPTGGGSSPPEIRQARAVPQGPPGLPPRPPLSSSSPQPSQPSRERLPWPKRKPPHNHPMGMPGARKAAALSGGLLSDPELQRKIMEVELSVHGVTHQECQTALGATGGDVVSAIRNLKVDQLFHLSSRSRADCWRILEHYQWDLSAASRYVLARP
# [4] = molecular target: Homeodomain-interacting protein kinase 2 (Homo sapiens, UniProt Q9H2X6); assay: Selectivity interaction (KinomeScan (DiscoverX)) EUB0000666a HIPK2; conditions: at 10 µM
# Sequence of Homeodomain-interacting protein kinase 2 (Q9H2X6 whole entry, looked up, the tested form may be a part): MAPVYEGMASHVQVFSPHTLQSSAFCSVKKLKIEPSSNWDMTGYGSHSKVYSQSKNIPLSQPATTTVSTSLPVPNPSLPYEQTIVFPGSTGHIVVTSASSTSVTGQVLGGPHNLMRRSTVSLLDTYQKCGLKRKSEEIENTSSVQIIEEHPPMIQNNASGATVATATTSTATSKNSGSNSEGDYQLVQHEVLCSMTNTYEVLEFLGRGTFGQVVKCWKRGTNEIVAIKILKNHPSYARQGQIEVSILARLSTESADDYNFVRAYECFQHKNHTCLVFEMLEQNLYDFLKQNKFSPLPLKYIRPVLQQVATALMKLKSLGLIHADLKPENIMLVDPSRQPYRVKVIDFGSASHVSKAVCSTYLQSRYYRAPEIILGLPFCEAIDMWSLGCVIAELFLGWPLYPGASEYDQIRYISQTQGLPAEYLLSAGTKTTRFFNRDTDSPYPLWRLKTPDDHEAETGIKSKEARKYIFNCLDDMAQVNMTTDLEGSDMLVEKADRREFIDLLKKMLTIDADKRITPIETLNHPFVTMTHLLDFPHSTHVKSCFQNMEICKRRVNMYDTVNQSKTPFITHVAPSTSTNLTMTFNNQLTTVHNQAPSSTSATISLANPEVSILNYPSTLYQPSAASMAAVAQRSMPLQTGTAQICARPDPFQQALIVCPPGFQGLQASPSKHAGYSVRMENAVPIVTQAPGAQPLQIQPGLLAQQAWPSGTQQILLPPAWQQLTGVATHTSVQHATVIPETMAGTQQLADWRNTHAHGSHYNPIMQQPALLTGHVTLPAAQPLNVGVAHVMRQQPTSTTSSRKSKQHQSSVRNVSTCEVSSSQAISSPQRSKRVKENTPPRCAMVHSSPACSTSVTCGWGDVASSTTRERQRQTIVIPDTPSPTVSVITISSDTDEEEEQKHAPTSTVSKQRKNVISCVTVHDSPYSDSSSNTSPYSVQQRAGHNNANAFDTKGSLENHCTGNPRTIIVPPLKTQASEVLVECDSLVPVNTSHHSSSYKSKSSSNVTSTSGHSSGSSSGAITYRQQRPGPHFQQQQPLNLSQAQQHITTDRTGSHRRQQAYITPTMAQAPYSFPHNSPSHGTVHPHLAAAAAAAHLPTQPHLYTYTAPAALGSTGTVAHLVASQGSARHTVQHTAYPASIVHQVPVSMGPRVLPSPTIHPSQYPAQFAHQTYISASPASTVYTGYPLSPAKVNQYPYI
# [5] = molecular target: LIM domain kinase 2 (Homo sapiens) (UniProt P53671); assay: Selectivity interaction (LanthaScreen Eu Kinase Binding Assay) EUB0001632a LIMK2; conditions: at 10 µM
# Sequence of LIM domain kinase 2 (Homo sapiens) (P53671 whole entry, looked up, the tested form may be a part): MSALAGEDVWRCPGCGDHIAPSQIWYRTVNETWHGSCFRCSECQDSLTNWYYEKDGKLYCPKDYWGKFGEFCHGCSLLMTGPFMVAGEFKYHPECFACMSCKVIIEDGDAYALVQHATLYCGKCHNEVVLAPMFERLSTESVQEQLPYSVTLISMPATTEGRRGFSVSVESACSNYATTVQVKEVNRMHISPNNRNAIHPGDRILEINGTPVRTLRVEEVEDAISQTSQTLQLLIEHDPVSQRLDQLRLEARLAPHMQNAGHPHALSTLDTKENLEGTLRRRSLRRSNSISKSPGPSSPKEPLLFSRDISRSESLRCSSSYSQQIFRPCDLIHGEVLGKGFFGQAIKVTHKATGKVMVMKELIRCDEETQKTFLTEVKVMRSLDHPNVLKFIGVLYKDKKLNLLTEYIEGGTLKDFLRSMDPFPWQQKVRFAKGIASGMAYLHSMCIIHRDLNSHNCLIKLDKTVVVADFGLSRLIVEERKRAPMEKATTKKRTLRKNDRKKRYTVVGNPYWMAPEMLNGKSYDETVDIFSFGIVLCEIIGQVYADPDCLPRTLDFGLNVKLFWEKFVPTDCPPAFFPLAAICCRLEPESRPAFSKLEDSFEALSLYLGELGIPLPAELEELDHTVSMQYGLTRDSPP
# [6] = molecular target: T2, Serine/threonine-protein kinase TBK1 (Homo sapiens) (UniProt Q9UHD2); assay: Selectivity interaction (Kinase panel (Invitrogen)) EUB0000639a TBK1; conditions: at 200 nM
# T2 sequence (whole entry): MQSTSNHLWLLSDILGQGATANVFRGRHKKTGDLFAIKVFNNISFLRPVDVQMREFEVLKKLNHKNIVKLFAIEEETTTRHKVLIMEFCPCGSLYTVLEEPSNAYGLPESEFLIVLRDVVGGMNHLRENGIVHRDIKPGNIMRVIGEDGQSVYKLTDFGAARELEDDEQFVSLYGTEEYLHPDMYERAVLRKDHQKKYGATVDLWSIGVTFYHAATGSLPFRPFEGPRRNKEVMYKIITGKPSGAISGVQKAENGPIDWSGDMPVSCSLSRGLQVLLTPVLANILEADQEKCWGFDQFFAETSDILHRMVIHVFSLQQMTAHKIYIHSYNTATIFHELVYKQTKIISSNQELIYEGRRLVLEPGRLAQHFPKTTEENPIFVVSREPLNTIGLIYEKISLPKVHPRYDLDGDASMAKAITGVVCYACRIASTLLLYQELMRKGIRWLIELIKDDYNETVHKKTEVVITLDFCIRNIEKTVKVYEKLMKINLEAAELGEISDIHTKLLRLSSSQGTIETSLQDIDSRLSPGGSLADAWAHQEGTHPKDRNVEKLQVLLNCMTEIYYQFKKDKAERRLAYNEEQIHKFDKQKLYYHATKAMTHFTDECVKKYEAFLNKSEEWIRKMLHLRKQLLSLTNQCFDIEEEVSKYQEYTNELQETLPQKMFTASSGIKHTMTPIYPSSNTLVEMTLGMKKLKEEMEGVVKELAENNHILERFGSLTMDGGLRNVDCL
# [7] = molecular target: T3, Calcium/calmodulin-dependent protein kinase type IV (Homo sapiens) (UniProt Q16566); assay: Selectivity interaction (KinomeScan (DiscoverX)) EUB0000607a CAMK4; conditions: at 10 µM
# T3 sequence (whole entry): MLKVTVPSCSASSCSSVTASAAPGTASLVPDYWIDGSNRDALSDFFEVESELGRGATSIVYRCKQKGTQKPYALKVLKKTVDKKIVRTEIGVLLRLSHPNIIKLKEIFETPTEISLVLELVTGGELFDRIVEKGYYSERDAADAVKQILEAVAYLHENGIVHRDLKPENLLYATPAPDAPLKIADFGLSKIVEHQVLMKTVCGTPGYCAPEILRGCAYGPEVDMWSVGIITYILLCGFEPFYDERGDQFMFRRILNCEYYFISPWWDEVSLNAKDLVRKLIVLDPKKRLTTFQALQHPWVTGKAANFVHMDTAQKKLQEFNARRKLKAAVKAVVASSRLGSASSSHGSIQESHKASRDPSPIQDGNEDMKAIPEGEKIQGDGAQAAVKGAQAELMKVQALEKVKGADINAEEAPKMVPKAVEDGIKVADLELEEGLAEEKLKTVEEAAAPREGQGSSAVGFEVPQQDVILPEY
# [8] = molecular target: T4, NUAK family SNF1-like kinase 2 (Homo sapiens) (UniProt Q9H093); assay: Selectivity interaction (Ambit KINOMEscan and KiNATiv profiling in Jurkat cells) EUB0000090b NUAK2; assay type: cell-based; conditions: at 1 µM
# T4 sequence (whole entry): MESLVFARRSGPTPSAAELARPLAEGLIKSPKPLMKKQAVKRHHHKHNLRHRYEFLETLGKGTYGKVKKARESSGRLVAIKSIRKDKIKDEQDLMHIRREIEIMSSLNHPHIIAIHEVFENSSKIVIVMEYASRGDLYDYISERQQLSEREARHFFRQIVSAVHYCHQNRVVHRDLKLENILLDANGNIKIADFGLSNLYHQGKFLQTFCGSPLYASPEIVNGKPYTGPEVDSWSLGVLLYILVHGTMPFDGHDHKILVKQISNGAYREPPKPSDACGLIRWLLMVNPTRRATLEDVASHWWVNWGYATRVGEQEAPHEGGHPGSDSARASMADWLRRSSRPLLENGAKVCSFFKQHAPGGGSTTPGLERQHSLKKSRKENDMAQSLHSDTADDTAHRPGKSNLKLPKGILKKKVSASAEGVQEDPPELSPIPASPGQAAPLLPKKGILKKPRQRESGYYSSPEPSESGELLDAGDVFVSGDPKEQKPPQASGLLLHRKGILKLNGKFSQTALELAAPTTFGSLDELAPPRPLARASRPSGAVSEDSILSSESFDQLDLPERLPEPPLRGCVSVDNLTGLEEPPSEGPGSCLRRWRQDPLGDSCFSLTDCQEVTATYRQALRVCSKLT
# [9] = molecular target: MAP kinase-interacting serine/threonine-protein kinase 2 (Homo sapiens, UniProt Q9HBH9); assay: Selectivity interaction (KinomeScan (DiscoverX)) EUB0001619a MKNK2; conditions: at 1 µM
# Sequence of MAP kinase-interacting serine/threonine-protein kinase 2 (Q9HBH9 whole entry, looked up): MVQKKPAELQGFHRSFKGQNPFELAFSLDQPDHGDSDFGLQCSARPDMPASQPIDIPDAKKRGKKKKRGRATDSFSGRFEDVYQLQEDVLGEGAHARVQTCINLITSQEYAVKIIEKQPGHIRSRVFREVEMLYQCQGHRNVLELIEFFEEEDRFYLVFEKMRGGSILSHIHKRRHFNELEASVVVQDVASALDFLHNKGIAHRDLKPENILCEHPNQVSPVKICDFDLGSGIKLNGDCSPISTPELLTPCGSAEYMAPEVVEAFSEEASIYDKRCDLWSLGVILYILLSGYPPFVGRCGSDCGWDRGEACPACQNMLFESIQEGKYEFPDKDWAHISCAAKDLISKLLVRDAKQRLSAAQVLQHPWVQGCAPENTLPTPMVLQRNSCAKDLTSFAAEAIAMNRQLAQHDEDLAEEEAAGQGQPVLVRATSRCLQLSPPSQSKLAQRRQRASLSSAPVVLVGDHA
# Sequence of Ribosomal protein S6 kinase alpha-3 (P51812 whole entry): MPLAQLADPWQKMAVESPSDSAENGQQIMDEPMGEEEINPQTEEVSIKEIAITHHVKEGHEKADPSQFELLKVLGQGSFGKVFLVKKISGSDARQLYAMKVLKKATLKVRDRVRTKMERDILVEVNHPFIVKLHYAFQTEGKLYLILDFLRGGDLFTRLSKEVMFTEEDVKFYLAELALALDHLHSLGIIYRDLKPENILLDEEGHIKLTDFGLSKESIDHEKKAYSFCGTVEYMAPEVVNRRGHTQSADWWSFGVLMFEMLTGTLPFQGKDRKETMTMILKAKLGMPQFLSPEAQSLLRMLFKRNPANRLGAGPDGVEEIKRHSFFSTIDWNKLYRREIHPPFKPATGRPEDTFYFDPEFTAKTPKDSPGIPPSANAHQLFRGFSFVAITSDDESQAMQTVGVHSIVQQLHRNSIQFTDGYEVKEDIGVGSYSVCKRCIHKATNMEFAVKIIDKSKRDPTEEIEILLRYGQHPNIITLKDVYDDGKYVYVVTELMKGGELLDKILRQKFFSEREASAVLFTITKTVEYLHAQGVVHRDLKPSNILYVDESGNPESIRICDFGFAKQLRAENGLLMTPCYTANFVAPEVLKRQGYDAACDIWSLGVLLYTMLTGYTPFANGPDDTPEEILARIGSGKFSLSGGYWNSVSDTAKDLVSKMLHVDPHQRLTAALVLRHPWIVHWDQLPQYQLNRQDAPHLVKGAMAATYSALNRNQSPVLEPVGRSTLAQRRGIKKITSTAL
# Sequence of Receptor tyrosine-protein kinase erbB-4 (Q15303 whole entry): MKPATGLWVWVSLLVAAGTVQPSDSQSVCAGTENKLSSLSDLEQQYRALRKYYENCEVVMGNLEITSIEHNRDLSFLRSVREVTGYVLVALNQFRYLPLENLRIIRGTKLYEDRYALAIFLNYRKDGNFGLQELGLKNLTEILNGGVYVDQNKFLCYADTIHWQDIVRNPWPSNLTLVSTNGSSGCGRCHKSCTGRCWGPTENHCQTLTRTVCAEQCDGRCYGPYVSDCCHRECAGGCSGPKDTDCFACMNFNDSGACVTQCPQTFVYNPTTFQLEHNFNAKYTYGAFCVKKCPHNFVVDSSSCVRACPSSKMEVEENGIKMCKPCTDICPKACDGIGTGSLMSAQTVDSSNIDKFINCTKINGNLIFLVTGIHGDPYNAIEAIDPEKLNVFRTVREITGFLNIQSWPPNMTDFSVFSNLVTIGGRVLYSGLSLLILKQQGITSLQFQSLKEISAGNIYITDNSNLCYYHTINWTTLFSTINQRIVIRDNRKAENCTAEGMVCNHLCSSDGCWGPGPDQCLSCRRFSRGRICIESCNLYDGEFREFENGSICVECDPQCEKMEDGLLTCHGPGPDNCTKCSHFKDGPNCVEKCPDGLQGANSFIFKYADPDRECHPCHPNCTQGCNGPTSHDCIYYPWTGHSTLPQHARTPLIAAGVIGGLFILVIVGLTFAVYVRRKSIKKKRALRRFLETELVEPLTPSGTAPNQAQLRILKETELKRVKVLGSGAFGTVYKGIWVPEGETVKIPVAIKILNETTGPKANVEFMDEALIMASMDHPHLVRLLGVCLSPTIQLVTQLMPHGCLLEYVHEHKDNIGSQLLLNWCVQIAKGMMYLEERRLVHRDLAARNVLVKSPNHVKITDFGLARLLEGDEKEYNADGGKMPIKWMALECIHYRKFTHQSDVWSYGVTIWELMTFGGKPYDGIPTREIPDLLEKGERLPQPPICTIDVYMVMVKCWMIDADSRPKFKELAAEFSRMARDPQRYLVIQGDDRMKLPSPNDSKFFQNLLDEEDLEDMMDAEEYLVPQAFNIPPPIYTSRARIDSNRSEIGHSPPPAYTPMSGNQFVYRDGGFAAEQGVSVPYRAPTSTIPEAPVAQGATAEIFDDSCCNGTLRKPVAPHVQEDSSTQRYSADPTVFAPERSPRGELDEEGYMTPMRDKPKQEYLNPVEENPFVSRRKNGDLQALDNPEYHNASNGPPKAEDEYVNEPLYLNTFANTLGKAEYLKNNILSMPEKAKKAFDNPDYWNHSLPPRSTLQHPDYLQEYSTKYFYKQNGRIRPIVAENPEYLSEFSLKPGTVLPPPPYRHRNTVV
smiles,measurement,setting,value
CCN(CC)CCCCNc1ncc2cc(-c3cc(OC)cc(OC)c3)c(NC(=O)NC(C)(C)C)nc2n1,% of control,[1],100%
same,% of control,[2],100%
Nc1cnc(N2CCc3cc(S(=O)(=O)Nc4c(F)cc(Cl)cc4F)cc(N4CCCC4=O)c32)nc1 [TP-020n],% of control,[3],100%
O=C(NOC[C@H](O)CO)c1ccc(F)c(F)c1Nc1ccc(I)cc1F,% of control,[4],100%
Cn1cc(-n2cnc3c(NCc4nc5cc(Cl)c(Cl)cc5[nH]4)nc(N4CCOCC4)nc32)cn1,% of inhibition,[5],-10.5%
CC[C@@H]1[C@H](F)C(=O)N[C@@H]1COc1nccc2cc(C(N)=O)c(OC)cc12 [ZIMLOVISERTIB],% of inhibition,[6],7.67%
CNC(=O)Nc1ccc(-c2nc(N3CC4CCC(C3)O4)c3cnn(C4CCC5(CC4)OCCO5)c3n2)cc1,% of control,[7],100%
CN(C)C/C=C/C(=O)Nc1ccc(C(=O)N2CCCC(Nc3ncc(Cl)c(-c4c[nH]c5ccccc45)n3)C2)cc1 (centres undefined),% of control,[8],94%
N#Cc1cccc(-c2c[nH]c3ncnc(N4CCOCC4)c23)c1,% of control,[9],90%
